Laboratory results published in patent US9120770B2, “Substituted pyridine and pyrazine compounds as PDE4 inhibitors” (DART NEUROSCIENCE (CAYMAN) LTD., priority 2013, dated 2015).

Target: PDE4D3 (Homo sapiens, UniProt Q08499)
Sequence (Q08499 1-673 isoform Q08499-2): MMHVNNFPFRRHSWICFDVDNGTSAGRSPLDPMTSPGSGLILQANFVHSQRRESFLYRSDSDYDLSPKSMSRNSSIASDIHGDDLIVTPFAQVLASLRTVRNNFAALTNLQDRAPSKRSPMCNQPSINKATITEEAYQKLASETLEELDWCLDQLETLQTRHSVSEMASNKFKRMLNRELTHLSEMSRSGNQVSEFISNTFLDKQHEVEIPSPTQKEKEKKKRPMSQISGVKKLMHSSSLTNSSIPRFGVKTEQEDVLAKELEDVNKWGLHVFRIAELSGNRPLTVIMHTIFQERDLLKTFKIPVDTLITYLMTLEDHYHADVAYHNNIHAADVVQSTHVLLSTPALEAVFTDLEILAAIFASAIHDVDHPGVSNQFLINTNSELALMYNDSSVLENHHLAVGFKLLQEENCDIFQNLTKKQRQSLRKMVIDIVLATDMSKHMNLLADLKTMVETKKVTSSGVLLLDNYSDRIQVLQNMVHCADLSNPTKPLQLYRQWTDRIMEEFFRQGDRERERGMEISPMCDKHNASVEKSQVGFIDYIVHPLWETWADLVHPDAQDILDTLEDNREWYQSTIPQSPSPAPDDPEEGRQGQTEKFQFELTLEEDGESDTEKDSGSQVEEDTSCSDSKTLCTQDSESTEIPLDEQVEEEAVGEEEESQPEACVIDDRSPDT

EC50 [nM] | SMILES
< 100 | COC(=O)Cc1ccc(Cc2cnc(OC(F)F)c(-c3cccc(Cl)c3)c2)cc1 [Example 100, Methyl 2-(4-{[5-(3-chlorophenyl)-6-(difluoromethoxy)pyridin-3-yl]methyl}phenyl)acetate]
< 100 | COc1ncc(Cc2cncs2)cc1-c1cccc(Cl)c1 [Example 65, 3-(3-Chlorophenyl)-2-methoxy-5-(1,3-thiazol-5-ylmethyl)pyridine]
< 100 | COc1ncc(Cc2cnc(NCC(F)(F)F)nc2)cc1-c1cccc(Cl)c1 [Example 84, 5-{[5-(3-Chlorophenyl)-6-methoxypyridin-3-yl]methyl}-N-(2,2,2-trifluoroethyl)pyrimidin-2-amine]
< 100 | COc1ncc(Cc2cnc(NC3CC3)nc2)cc1-c1cccc(Cl)c1 [Example 82, 5-{[5-(3-Chlorophenyl)-6-methoxypyridin-3-yl]methyl}-N-cyclopropylpyrimidin-2-amine]
1000 to 10000 | CCOc1ncc(Cn2ncnc2C(=O)OC)nc1-c1cccc(OC(F)F)c1 [Example 192, Methyl 1-((6-(3-(difluoromethoxy)phenyl)-5-ethoxypyrazin-2-yl)methyl)-1H-1,2,4-triazole-5-carboxylate]
100 to 1000 | COc1ncc(Cc2cnoc2)cc1-c1cccc(Cl)c1 [Example 96, 3-(3-Chlorophenyl)-2-methoxy-5-(1,2-oxazol-4-ylmethyl)pyridine]
< 100 | COc1ncc(Cc2cnc(OC)c(-c3cccc(Cl)c3)n2)cn1 [Example 55, 3-(3-Chlorophenyl)-2-methoxy-5-[(2-methoxypyrimidin-5-yl)methyl]pyrazine]
< 100 | COc1ncc(Cc2cnc(N)nc2)cc1-c1cccc(F)c1 [Example 38, 5-{[5-(3-Fluorophenyl)-6-methoxypyridin-3-yl]methyl}pyrimidin-2-amine]
100 to 1000 | CCOc1ncc(Cn2cnc(CO)n2)nc1-c1cccc(OC(F)F)c1 [Example 208, [1-({6-[3-(Difluoromethoxy)phenyl]-5-ethoxypyrazin-2-yl}methyl)-1H-1,2,4-triazol-3-yl]methanol]
1000 to 10000 | CCOc1ncc(Cn2ncnc2[N+](=O)[O-])nc1-c1cccc(OC(F)F)c1 [Example 194, 3-(3-(Difluoromethoxy)phenyl)-2-ethoxy-5-((5-nitro-1H-1,2,4-triazol-1-yl)methyl)pyrazine]
100 to 1000 | FC(F)Oc1ncc(Cc2nccs2)cc1-c1cccc(Cl)c1 [Example 74, 3-(3-Chlorophenyl)-2-(difluoromethoxy)-5-(1,3-thiazol-2-ylmethyl)pyridine]
100 to 1000 | COc1ncn(Cc2cnc(OC(F)F)c(-c3cccc(Cl)c3)c2)n1 [Example 214, 3-(3-Chlorophenyl)-2-(difluoromethoxy)-5-[(3-methoxy-1H-1,2,4-triazol-1-yl)methyl]pyridine]
100 to 1000 | CS(=O)(=O)c1ccc(Cc2cnc(OC(F)F)c(-c3cccc(Cl)c3)c2)cc1 [Example 45, 3-(3-Chlorophenyl)-2-(difluoromethoxy)-5-[(4-methanesulfonylphenyl)methyl]pyridine]
100 to 1000 | COc1ncc(Cc2cnc(C(N)=O)nc2)cc1-c1cccc(Cl)c1 [Example 24, 5-{[5-(3-Chlorophenyl)-6-methoxypyridin-3-yl]methyl}pyrimidine-2-carboxamide]
100 to 1000 | COc1ncc(Cc2ccncc2)cc1-c1cccc(Cl)c1 [Example 53, 3-(3-Chlorophenyl)-2-methoxy-5-(pyridin-4-ylmethyl)pyridine]
< 100 | CCOc1ncc(Cn2cnc(COC)n2)cc1-c1cccc(OC(F)F)c1 [Example 165, 3-[3-(Difluoromethoxy)phenyl]-2-ethoxy-5-{[3-(methoxymethyl)-1H-1,2,4-triazol-1-yl]methyl}pyridine]

EC50 [nM] | SMILES
100 to 1000 | COc1ncc(Cn2cnc(C3CC3)n2)cc1-c1cccc(Cl)c1 [Example 147, 3-(3-Chlorophenyl)-5-[(3-Cyclopropyl-1H-1,2,4-triazol-1-yl)methyl]-2-methoxypyridine]
< 100 | COc1ncc(Cc2cnn(C)c2)nc1-c1cccc(Cl)c1 [Example 58, 3-(3-Chlorophenyl)-2-methoxy-5-[(1-methyl-1H-pyrazol-4-yl)methyl]pyrazine]
100 to 1000 | COc1ncc(Cc2ccc(C(N)=O)nc2)cc1-c1cccc(Cl)c1 [Example 116, 5-{[5-(3-Chlorophenyl)-6-methoxypyridin-3-yl]methyl}pyridine-2-carboxamide]
100 to 1000 | CC(C)Oc1ncc(Cc2cnc(N)nc2)cc1-c1cccc(Cl)c1 [Example 41, 5-{[5-(3-Chlorophenyl)-6-(propan-2-yloxy)pyridin-3-yl]methyl}pyrimidin-2-amine]
> 10000 | COc1ncc(Cn2cncn2)cc1-c1cn[nH]c1 [Example 242, 2-Methoxy-3-(1H-pyrazol-4-yl)-5-(1H-1,2,4-triazol-1-ylmethyl)pyridine]
100 to 1000 | CCOc1ncc(Cn2cc(CF)nn2)cc1-c1cccc(OC(F)F)c1 [Example 254, 3-[3-(Difluoromethoxy)phenyl]-2-ethoxy-5-{[4-(fluoromethyl)-1H-1,2,3-triazol-1-yl]methyl}pyridine]
100 to 1000 | FC(F)Oc1ncc(Cc2cnc(NC3CC3)nc2)cc1-c1cccc(Cl)c1 [Example 91, 5-{[5-(3-Chlorophenyl)-6-(difluoromethoxy)pyridin-3-yl]methyl}-N-cyclopropylpyrimidin-2-amine]
1000 to 10000 | CCOc1ncc(Cn2cnc(N)n2)nc1-c1cccc(OC(F)F)c1 [Example 237, 1-((6-(3-(Difluoromethoxy)phenyl)-5-ethoxypyrazin-2-yl)methyl)-1H-1,2,4-triazol-3-amine]
< 100 | CCOc1ncc(Cc2cnc(C#N)nc2)nc1-c1cccc(OC(F)F)c1 [Example 1, 5-({6-[3-(Difluoromethoxy)phenyl]-5-ethoxypyrazin-2-yl}methyl)pyrimidine-2-carbonitrile]
100 to 1000 | COCc1ncn(Cc2cnc(OC(F)F)c(-c3cccc(Cl)c3)c2)n1 [Example 157, 3-(3-Chlorophenyl)-2-(difluoromethoxy)-5-{[3-(methoxymethyl)-1H-1,2,4-triazol-1-yl]methyl}pyridine]
100 to 1000 | COc1ncc(Cc2cnc(C(N)=O)nc2)cc1-c1cccc(OC(F)F)c1 [Example 121, 5-({5-[3-(Difluoromethoxy)phenyl]-6-methoxypyridin-3-yl}methyl)pyrimidine-2-carboxamide]
1000 to 10000 | COc1ncc(Cn2cccn2)nc1-c1cccc(Cl)c1 [Example 182, 3-(3-Chlorophenyl)-2-methoxy-5-(1H-pyrazol-1-ylmethyl)pyrazine]
< 100 | COc1ncc(Cc2ccc(N)nc2)cc1-c1cccc(Cl)c1 [Example 30, 5-{[5-(3-Chlorophenyl)-6-methoxypyridin-3-yl]methyl}pyridin-2-amine]
100 to 1000 | CCOc1ncc(Cn2cc(Cl)c(N)n2)cc1-c1cccc(Cl)c1 [Example 234, 4-Chloro-1-{[5-(3-chlorophenyl)-6-ethoxypyridin-3-yl]methyl}-1H-pyrazol-3-amine]
1000 to 10000 | COc1ncc(Cc2cc(C)nc(C)c2)cc1-c1cccc(Cl)c1 [Example 61, 3-(3-Chlorophenyl)-5-[(2,6-dimethylpyridin-4-yl)methyl]-2-methoxypyridine]
< 100 | CCOc1ncc(Cn2cnc(C(F)F)n2)cc1-c1cccc(OC(F)F)c1 [Example 260, 3-[3-(Difluoromethoxy)phenyl]-5-{[3-(difluoromethyl)-1H-1,2,4-triazol-1-yl]methyl}-2-ethoxypyridine]
